Where a name gives a salt, the structure may show the parent alone.
Legend:
[1] = system: rat kidneys; assay: Urine collection from isolated perfused rat kidney; details: 12 hours of perfusion; mannitol 20 grams/L, gemfibrozil 50 mg/L
Experimental: (§1) Drug Preparation. Leibovitz L-15 cell culture medium (Sigma, St. Louis, Mo.) was mixed according to the manufacture's specifications to make 2 liters and 120 mg of penicillin was added. The pH of one liter of L-15 was adjusted to 7.4, and this solution was used during the kidney isolation procedure. The other liter was further prepared with addition of various pharmacological agents, and then the pH adjusted to 7.4. Both solutions were then filtered (0.22 microns) into 1 liter containers. The solution with the experimental drug was then perfused through the kidney perfusion system at a rate of 2.6 ml/min. The other solution was placed underneath the hood where the surgery was to be done. Kidney Isolation. Kidneys were isolated under a laminar flow hood (Labconco) fitted with a separate roller pump. The operator used sterilized latex gloves with frequent application of 75% alcohol to gloves and instruments throughout the course of the surgery. Gloves were replaced anytime the operator's hands left the surgical hood. Animals were anesthetized with Inactin (90 mg/kg, ip; Sigma), the abdomen was shaved, washed with 75% alcohol, and covered with autoclaved paper towels. The tubing, which would eventually be required for isolation, was assembled and placed in the roller pump. This tubing consisted of three sequentially smaller sections, the middle of which was the pump tubing (Harvard Apparatus). […]

[2] = system: rat kidney tissue; assay: Electron microscopy of isolated rat kidneys perfused 12 hours with L-15; details: one kidney per group; mannitol 20 grams/L, gemfibrozil 50 mg/L; vs L-15 alone
Experimental: (§2) Drug Preparation. Leibovitz L-15 cell culture medium (Sigma, St. Louis, Mo.) was mixed according to the manufacture's specifications to make 2 liters and 120 mg of penicillin was added. The pH of one liter of L-15 was adjusted to 7.4, and this solution was used during the kidney isolation procedure. The other liter was further prepared with addition of various pharmacological agents, and then the pH adjusted to 7.4. Both solutions were then filtered (0.22 microns) into 1 liter containers. The solution with the experimental drug was then perfused through the kidney perfusion system at a rate of 2.6 ml/min. The other solution was placed underneath the hood where the surgery was to be done. Kidney Isolation. Kidneys were isolated under a laminar flow hood (Labconco) fitted with a separate roller pump. The operator used sterilized latex gloves with frequent application of 75% alcohol to gloves and instruments throughout the course of the surgery. Gloves were replaced anytime the operator's hands left the surgical hood. Animals were anesthetized with Inactin (90 mg/kg, ip; Sigma), the abdomen was shaved, washed with 75% alcohol, and covered with autoclaved paper towels. The tubing, which would eventually be required for isolation, was assembled and placed in the roller pump. This tubing consisted of three sequentially smaller sections, the middle of which was the pump tubing (Harvard Apparatus). The smallest of the sections was linked, using an adaptor connector, to PE-50 tubing (which had been previously soaked in alcohol for at least 2 days). This PE-50 tubing was for insertion into the renal artery. The largest size tubing was placed into the 1 liter of room temperature L-15. The pump was turned on for a brief time, allowing all tubing to be filled with L-15 medium to remove all air bubbles from the tubing. The skin covering the abdominal cavity was cut horizontally. A light spray of alcohol was applied to the area to remove pieces of hair, followed by a horizontal cut in the same area through the muscle; exposing the internal organs. A section of sterile gauze was set to the left of the animal, and the large/small intestines were gently pulled out of the abdominal cavity and wrapped in the gauze. […] All side branches of the renal artery and vein were ligated and cut. Next, the aorta, vena cava, renal artery and renal vein were identified, cleaned of fat and connective tissue and dissected free, and ligatures were loosely placed around these vessels. The infra-renal aorta was ligated, a small clamp was placed on the aorta just above the ligation but below the renal artery, a cut was made between the clamp and ligation, and the PE-50 tubing was inserted, secured with a ligature and advanced into the left renal artery. […]

[3] = system: rat kidneys; assay: Light microscopy histology of isolated rat kidneys perfused 12 hours at 37° C. with L-15; details: for histological preservation as assessed by light microscopy (screen of pharmacological agents): agent added to L-15 perfusate, 12-hour perfusion at 37° C.; for histology at the light microscopic level / histology score (0 = unrecognizable micro-structure, 10 = 30-minute flushed kidney), FIG. 1: mannitol 20 grams/L, gemfibrozil 50 mg/L, 12-hour perfusion; for histology at the light microscopic level: vs L-15 alone; for histology score (0 = unrecognizable micro-structure, 10 = 30-minute flushed kidney), FIG. 1: blinded observer
Experimental: Animals. Male Sprague-Dawley rats, 15 to 20 weeks-of-age, were housed in a University of Pittsburgh Medical Center animal care facility (temperature 22 EC; light cycle 12 hours; relative humidity 55%). Animals were fed Pro Laboratory RMH 3000 rodent diet (PMI Nutrition Inc., St. Louis, Mo.) and were given water ad libitum. Institutional guidelines for animal welfare were followed, and the Institutional Animal Care and Use Committee approved experimental protocols.
Preparation of Perfusion System. Due to bacterial infection associated with chronic kidney perfusion at 37° C., rat kidneys were perfused in a sterile environment. A glass perfusion system (Hugo Sachs Elektronik-Harvard Apparatus GmbH), which allowed for autoclaving and ultraviolet-light sterilization without damage to the structural integrity of the system, was used in all experiments. This system included the following components arranged in series: a jacketed glass perfusate reservoir for warming and initial oxygenation of perfusate; a jacketed glass-oxygenator for additional oxygenation; a Windkessel chamber for absorption of pulsations; a jacketed heat exchanger for warming the perfusate and trapping bubbles just before the perfusate enters the kidney; and a jacketed organ chamber to keep the kidney's surrounding environment at 37° C.
Drug Preparation. Leibovitz L-15 cell culture medium (Sigma, St. Louis, Mo.) was mixed according to the manufacture's specifications to make 2 liters and 120 mg of penicillin was added. The pH of one liter of L-15 was adjusted to 7.4, and this solution was used during the kidney isolation procedure. The other liter was further prepared with addition of various pharmacological agents, and then the pH adjusted to 7.4. Both solutions were then filtered (0.22 microns) into 1 liter containers. The solution with the experimental drug was then perfused through the kidney perfusion system at a rate of 2.6 ml/min. The other solution was placed underneath the hood where the surgery was to be done.
as §2, with “Kidney” for “Drug Preparation. Leibovitz L-15 cell culture medium (Sigma, St. Louis, Mo.) was mixed according to the manufacture's specifications to make 2 liters and 120 mg of penicillin was added. The pH of one liter of L-15 was adjusted to 7.4, and this solution was used during the kidney isolation procedure. The other liter was further prepared with addition of various pharmacological agents, and then the pH adjusted to 7.4. Both solutions were then filtered (0.22 microns) into 1 liter containers. The solution with the experimental drug was then perfused through the kidney perfusion system at a rate of 2.6 ml/min. The other solution was placed underneath the hood where the surgery was to be done. Kidney”, “vessels.” for “vessels. The infra-renal aorta was ligated, a small clamp was placed on the aorta just above the ligation but below the renal artery, a cut was made between the clamp and ligation, and the PE-50 tubing was inserted, secured with a ligature and advanced into the left renal artery.”

[4] = system: rat kidneys; assay: Perfusion pressure of isolated perfused rat kidney over 12 hours; details: mannitol 20 grams/L, gemfibrozil 50 mg/L
Experimental: Drug Preparation. Leibovitz L-15 cell culture medium (Sigma, St. Louis, Mo.) was mixed according to the manufacture's specifications to make 2 liters and 120 mg of penicillin was added. The pH of one liter of L-15 was adjusted to 7.4, and this solution was used during the kidney isolation procedure. The other liter was further prepared with addition of various pharmacological agents, and then the pH adjusted to 7.4. Both solutions were then filtered (0.22 microns) into 1 liter containers. The solution with the experimental drug was then perfused through the kidney perfusion system at a rate of 2.6 ml/min. The other solution was placed underneath the hood where the surgery was to be done. Kidney Isolation. Kidneys were isolated under a laminar flow hood (Labconco) fitted with a separate roller pump. The operator used sterilized latex gloves with frequent application of 75% alcohol to gloves and instruments throughout the course of the surgery. Gloves were replaced anytime the operator's hands left the surgical hood. Animals were anesthetized with Inactin (90 mg/kg, ip; Sigma), the abdomen was shaved, washed with 75% alcohol, and covered with autoclaved paper towels. The tubing, which would eventually be required for isolation, was assembled and placed in the roller pump. This tubing consisted of three sequentially smaller sections, the middle of which was the pump tubing (Harvard Apparatus). The smallest of the sections was linked, using an adaptor connector, to PE-50 tubing (which had been previously soaked in alcohol for at least 2 days). This PE-50 tubing was for insertion into the renal artery. The largest size tubing was placed into the 1 liter of room temperature L-15. The pump was turned on for a brief time, allowing all tubing to be filled with L-15 medium to remove all air bubbles from the tubing. The skin covering the abdominal cavity was cut horizontally. A light spray of alcohol was applied to the area to remove pieces of hair, followed by a horizontal cut in the same area through the muscle; exposing the internal organs. […]

[5] = system: Na+-K+-ATPase-α1; assay: Western blotting and densitometry of Na+-K+-ATPase-α1 in 12-hour perfused rat kidneys; details: mannitol 20 grams/L, gemfibrozil 50 mg/L; 12-hour perfusion
Experimental: as §1

[6] = system: rat kidneys; assay: Apoptag (TUNEL) staining for apoptosis in 12-hour perfused rat kidneys; details: mannitol 20 grams/L, gemfibrozil 50 mg/L; vs L-15 alone
Experimental: as §1

Structure (SMILES) | total urine volume, FIG. 4C [1] | glomerular ultrastructure (electron microscopy) [2] | tubular ultrastructure (electron microscopy) [2] | histological preservation as assessed by light microscopy (screen of pharmacological agents) [3] | histology at the light microscopic level [3] | histology score (0 = unrecognizable micro-structure, 10 = 30-minute flushed kidney), FIG. 1 [3] | rapid increase in perfusion pressure observed in L-15 alone kidneys, FIG. 3 [4] | initial renal perfusion pressure, FIG. 3 ([4]; L-15 alone approximately 50 mm Hg) | Na+-K+-ATPase-α1 expression normalized to β-actin, FIG. 2 [5] | degree of apoptosis (Apoptag staining) [6]
OC[C@@H](O)[C@@H](O)[C@H](O)[C@H](O)CO [mannitol] | increased total urine volume | slightly improved | only marginally better | moderate histological preservation | modestly improved | did not achieve statistical significance | more so | approximately 25 mm Hg | nearly undetectable | reduced the degree of apoptosis
NC(=O)c1cccc(N)c1 [3-aminobenzamide] | – | – | – | mild protection | – | – | – | – | – | –
C[C@]12CCC(=O)C=C1CC[C@@H]1[C@@H]2[C@@H](O)C[C@]2(C=O)[C@@H](C(=O)CO)CC[C@@H]12 [Aldosterone, aldosterone] | – | – | – | mild protection | – | – | – | – | – | –
Cc1ccc(C)c(OCCCC(C)(C)C(=O)O)c1 [gemfibrozil] | increased total urine volume | slightly improved | only marginally better | moderate histological preservation | modestly improved | statistically significantly improved the histological score | delayed | – | slightly higher | reduced the degree of apoptosis
O=c1[nH]c(=O)c2[nH]c(=O)[nH]c2[nH]1 [uric acid] | – | – | – | mild protection | – | – | – | – | – | –
Nc1cc(N2CCCCC2)nc(N)[n+]1OS(=O)(=O)[O-] [minoxidil sulfate] | – | – | – | mild protection | – | – | – | – | – | –

— US7897326B2, “Peroxisome-proliferator activated receptor-alpha agonists for organ preservation” (University of Pittsburgh-of the Commonwealth System of …, priority 2006, dated 2011)
